In patent US20150118222A1, “TREATMENT USING BRUTON'S TYROSINE KINASE INHIBITORS AND IMMUNOTHERAPY” (Pharmacyclics, Inc., priority 2013, published 2015):
Read-outs that look alike come from different tables or passages of the source.

Tests used:
CT26 cells [1] = tested on: CT26 cells
4T1-Luc cells = settings: 4T1, model of triple negative breast cancer
A20 = experiment: IC50 of ibrutinib in A20 mouse lymphoma cells (FIG. 19B); format: cell-based; settings: read-out: IC50 of ibrutinib, FIG. 19 Panel B
CT26 cells [2] = experiment: CT26 colon cancer mouse model (Example 8); format: in vivo, BALB/c mice; settings: CT26 colon carcinoma line

## C=CC(=O)N1CCC[C@@H](n2nc(-c3ccc(Oc4ccccc4)cc3)c3c(N)ncnc32)C1 [ibrutinib, 1-((R)-3-(4-amino-3-(4-phenoxyphenyl)-1H-pyrazolo[3,4-d]pyrimidin-1-yl)piperidin-1-yl)prop-2-en-1-one]
CT26 cells [1]
  sensitivity of the CT26 cell line to ibrutinib: not sensitive
4T1-Luc cells
  sensitivity of the 4T1 cell line to ibrutinib: not sensitive
A20
  IC50: > 10 µM
CT26 cells [2]
  sensitivity of the CT26 cell line to ibrutinib: not sensitive
